Columns and labels:
[1] = test system: Stx2 cytotoxicity toward HeLa cells
[2] = test system: recombinant histidine-tagged Stx2B subunit (2BH); type: binding, Escherichia coli
[3] = test system: binding of 125I-Stx2 to HeLa cells; type: cell-based

HNPMSFPTPRLY [HN-11]
inhibitory effect on Stx2 cytotoxicity [1]: Almost no inhibitory effect | concentration dependence of binding to 2BH [2]: did not significantly change | inhibitory effect on the uptake of Stx2 [3]: almost no inhibitory effect
